The results in this text go back to US20070213359A1 (ACADIA Pharmaceuticals Inc., priority 2005, published 2007).

T1 sequence (Q92847 whole entry): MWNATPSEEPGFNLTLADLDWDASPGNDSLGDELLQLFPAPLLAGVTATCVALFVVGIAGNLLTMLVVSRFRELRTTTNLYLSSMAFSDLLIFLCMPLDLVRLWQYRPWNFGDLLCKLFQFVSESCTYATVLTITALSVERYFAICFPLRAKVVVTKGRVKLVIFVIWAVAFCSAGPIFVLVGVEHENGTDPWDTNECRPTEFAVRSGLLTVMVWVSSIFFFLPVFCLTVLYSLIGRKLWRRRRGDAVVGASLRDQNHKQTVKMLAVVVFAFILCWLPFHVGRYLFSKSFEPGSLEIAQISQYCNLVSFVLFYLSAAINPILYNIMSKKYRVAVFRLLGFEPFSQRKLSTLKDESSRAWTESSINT
Chain of Ghrelin receptor (Q92847 whole entry): as above

The first assay has as its target Ghrelin receptor (Homo sapiens, UniProt Q92847). In words: Receptor Selection and Amplification Technology (R-SAT) assay. It counts as cell-based. More on the design: expressed in transfected cells; host or cells: NIH3T3. The conditions noted are these: negative logarithm of ligand concentration causing 50% inhibition of constitutive receptor response; transfected NIH3T3 cells; '—' not defined (nd used separately); read-out: RSAT pIC50 (converted).
As for `COc1cccc2c(C(C)=O)cn(CCCN3CCC(Oc4ccc(F)cc4)CC3)c12` [drawing 241], the IC50 was 2.51 nM.

In the case of `CC(=O)c1cn(CCCN2CCC(c3nc4ccccc4s3)CC2)c2ccccc12` [drawing 462], the IC50 was 100 nM.

Take `CC(=O)c1cn(CCCN2CCC(c3nc4ccccc4s3)CC2)c2ccccc12` [drawing 466]: the IC50 was 126 nM.

In the case of `CC(=O)c1cn(CCCN2CCC(Oc3ccc(F)cc3)CC2)c2ccccc12.O=C(O)C(=O)O` [drawing 520], the IC50 was 251 nM.

For `COc1ccccc1C1CCN(CCCn2cc(C(C)=O)c3ccccc32)CC1` [drawing 533], the IC50 was 316 nM.

The assay is the same for the next values; noted with them: percent inhibition at saturating ligand, normalized to reference ligand Substance P analog = 100%.
With `COc1cccc2c(C(C)=O)cn(CCCN3CCC(Oc4ccc(F)cc4)CC3)c12` [drawing 241], the “RSAT Eff(%)” value is listed as 104%.

Consider `CC(=O)c1cn(CCCN2CCC(c3nc4ccccc4s3)CC2)c2ccccc12` [drawing 466], for which the “RSAT Eff(%)” value worked out at 99%.

As for `CC(=O)c1cn(CCCN2CCC(Oc3ccc(F)cc3)CC2)c2ccccc12.O=C(O)C(=O)O` [drawing 520], the “RSAT Eff(%)” value is 128%.

The same assay, now with this note: percent inhibition at saturating ligand, normalized to reference ligand Substance P analog = 100%; read-out: RSAT Eff(%).
Take `CC(=O)c1cn(CCCN2CCC(c3nc4ccccc4s3)CC2)c2ccccc12` [drawing 462]: the Emax came out at 115%.

Turning to `CC(=O)c1cn(CCCN2CCC(Oc3ccccc3Cl)CC2)c2ccccc12` [drawing 499], the Emax came to 105%.

With `COc1ccccc1C1CCN(CCCn2cc(C(C)=O)c3ccccc32)CC1` [drawing 533], the Emax is 109%.

Still in this assay, the particulars now being: read-out: RSAT Eff(%).
As to `CC(=O)c1cn(CCCN2CCCC(Cc3ccccc3Cl)C2)c2c(Cl)cccc12` (centres unmarked), the Emax came to 47%.

With `CC(=O)c1cn(CCCN2CCC(Cc3ccccc3Cl)C2)c2c(Cl)cccc12` (centres unmarked), the Emax is 37%.

As for `CC(=O)c1cn(CCCN2C3CCC2CC(Oc2ccccc2Cl)C3)c2c(Cl)cccc12` (centres unmarked), the Emax came out at 60%.

In the case of `COc1cccc2c(C(=O)c3ccccc3)cn(CCCN3CCCC(Oc4ccc(Cl)cc4)C3)c12` (centres unmarked), the Emax stood at 48%.

On to `COc1cccc2c(C(=O)NCc3cccc(C)c3)cn(CCCN3CCCC(Oc4ccc(Cl)cc4)C3)c12` (centres unmarked), for which the Emax was 14%.

For `COc1cccc2c(C(=O)NCc3cccc(Cl)c3)cn(CCCN3CCCC(Oc4ccc(Cl)cc4)C3)c12` (centres unmarked), the Emax stood at 31%.

Take `CC(=O)c1c(C)n(CCCNCCOc2ccccc2)c2c(Br)cccc12`: the Emax amounted to 5%.

Regarding `CCc1cccc2c(C(C)=O)cn(CCCN3CCN(CCOc4ccc(Cl)c5ccccc45)CC3)c12`, the Emax was 29%.

Regarding `CC(=O)c1cn(CCCNC2Cc3ccccc3C2)c2c(C#N)cccc12`, the Emax was 6%.

With `CC(=O)c1cn(CCCN2CCCC(Oc3ccc(Cl)cc3)C2)c2c(C)cccc12` (centres unmarked), the Emax was -2%.

Regarding `COc1cccc2c(C(=O)NCC(C)C)cn(CCCN3CCCC(Oc4ccc(Cl)cc4)C3)c12` (centres unmarked), the Emax amounted to 9%.

The next assay has as its target T1, GHSR1a receptor (Homo sapiens, UniProt Q92847).
T1 construct: expressed in transfected cells; host or cells: HEK293 (membranes)
Nature of the assay: 125I-Ghrelin binding assay. The settings on record: Binding pKi, displacement of 125I-ghrelin (0.053 nM), membranes of HEK293 cells transfected with GHSR1a; Cheng-Prussoff; '—' not defined. The method, then:
Plasmid DNA containing the GHSR1a receptor (12.5 ug/dish) in 0.675 ml DMEM was transfected into the cells by mixing with 180 ul PolyFect, 15 min later mixing in 2.25 ml 10% CS/DMEM, and transferring the mixture into the dish. At 16-18 h post transfection, medium was replaced with 25 ml fresh 10% FCS/1% PSG/DMEM to each dish for another 18-20 h. At approximately 48 hours post-transfection, cells were harvested in ice-cold membrane buffer (20 mM HEPES, 6 mM MgCl2, 1 mM EDTA, pH to 7.2) using a cell scraper, and pelleted by centrifugation.
Pelleted cells were added to a nitrogen cavitation chamber and 900 bar of pressure applied for 30 min. The pressure was slowly released the cavitated cells collected in 50 ml falcon tubes. The tubes were centrifuged at 1000 rpm, 4° C. for 10 min, and the supernatant collected. This centrifugation and collection was repeated two more times until the supernatant was free of precipitate (membranes are still in suspension). The supernatant was poured into a 50 ml centrifuge tube and centrifuged at 10.000 rpm, 4° C. for 20 min. The supernatant was discarded and the pellet re-suspended in 750 μl membrane binding buffer using a chilled 1 ml syringe with 25G5/8 needle to re-suspend membranes. The protein concentration was determined using the BioRad Protein Assay Dye Reagent according to the manufacturers instructions. The protein concentration was adjusted to 5 mg/ml and aliquots snap-frozed and stored at −80 C until use.
Membranes were thawed rapidly; diluted with binding buffer (25 mM Hepes+5 mM MgCl2, 1 mM CaCl2, 2.5 mM EDTA and 0.2% BSA) to a protein concentration of 0.8 ug/30 ul and placed on ice. 96-well plates (U-bottom wells) were prepared with serial dilutions (8 doses, 40 ul/w) of the test compounds. Membranes (30 uL/well) were then added, and incubated with test ligands for 30 min at room temperature with shaking. […] Binding was terminated by filtration through GF/B filters (presoaked with 0.1% polyethylenimine) with a Brandel 96-well harvester. The filters were washed with ice-cold binding buffer (150 ml/plate) and allowed to air-dry for 30 min. 50 ul MicroScient-20 cocktail was added to each dried well, the plates were sealed, and counted for 2 min/well using a TopCount scintillation counter (Packard).
Background: In a radioligand displacement assay an active substance lowers the binding of a labelled ligand.
The molecule `COc1cccc2c(C(=O)NCc3cccc(C)c3)cn(CCCN3[C@@H]4CC[C@H]3CC(CC(=O)c3ccccc3)C4)c12` (some centres unmarked) had a Ki of 63.1 nM.

The molecule `COc1cccc2c(C(=O)NCC(C)C)cn(CCCN3CCC(c4nc5ccccc5s4)CC3)c12` [drawing 706] gave a Ki of 501 nM.

Still in this assay, the particulars now being: displacement of 125I-ghrelin (0.053 nM), membranes of HEK293 cells transfected with GHSR1a; Cheng-Prussoff; '—' not defined; read-out: Binding pKi (converted).
As to `CC(=O)c1c(C)n(CCCN2C3CCC2CC(CCc2ccccc2)C3)c2c(Br)cccc12` (centres unmarked), the Ki was 200 nM.

`O=C(c1cn(CCCN2C3CCC2CC(CCc2ccc(Cl)cc2)C3)c2ncccc12)C(F)(F)F` (centres unmarked): the Ki was 251 nM.

`CCc1cccc2c(C(C)=O)cn(CCCN3C4CCC3CC(CC(=O)c3ccc(Cl)cc3)C4)c12` (centres unmarked): the Ki was 501 nM.

As for `CC(=O)c1c(C)n(CCCN2CCC(CCOc3ccc(Cl)cc3)CC2)c2c(Br)cccc12`, the Ki is 631 nM.

For the molecule `CCCOC1CCN(CCCn2cc(C(C)=O)c3cccc(OC)c32)CC1` [drawing 713], the Ki is 1260 nM.
